# Several values for one entry are separate records, joined by “and”; a condition that tells them apart may be missing. Equal entries are not always repeated. Entries after “also recorded” stand apart in the source; their conditions may differ.
# Columns and labels:
# [1] = system: U2OS KLHDC2 KO/rescue and KO cells (proteome); test: TMT-based total proteomics of dosed U2OS cells; settings: 1 μM, 24 h
# [2] = system: SKBR3, AU565, RD, SKES1, A673 cells; test: Cell Titer-Glo Luminescent Cell Viability assay; settings: 24 h, read-out: IC50, cell viability
# [3] = Measurement of SJ46421 cellular concentration by LC-MS/MS; type: in vitro ADME; settings: SKBR3, from LC-MS-MS of lysates
# [4] = biological target: H346A/R347A KLHDC2^SBD / BRD3^BD2 (Homo sapiens, UniProt Q15059+Q9Y2U9, H346A/R347A); test: ITC, ternary complex H346A/R347A KLHDC2^SBD with PROTAC-BRD3^BD2
# Sequence of H346A/R347A KLHDC2^SBD / BRD3^BD2 (Q9Y2U9 15-361 H346A/R347A): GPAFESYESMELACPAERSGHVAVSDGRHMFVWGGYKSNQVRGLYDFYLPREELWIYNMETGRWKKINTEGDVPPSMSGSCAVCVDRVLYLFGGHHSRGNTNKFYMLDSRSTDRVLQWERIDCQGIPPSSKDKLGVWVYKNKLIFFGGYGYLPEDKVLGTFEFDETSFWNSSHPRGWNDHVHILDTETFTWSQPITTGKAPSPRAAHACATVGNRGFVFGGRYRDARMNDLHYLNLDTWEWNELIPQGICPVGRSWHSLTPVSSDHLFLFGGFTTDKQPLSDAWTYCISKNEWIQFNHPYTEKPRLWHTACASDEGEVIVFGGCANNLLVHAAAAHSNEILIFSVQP
# Sequence of H346A/R347A KLHDC2^SBD / BRD3^BD2 (Q15059 306-416, stated change not applied): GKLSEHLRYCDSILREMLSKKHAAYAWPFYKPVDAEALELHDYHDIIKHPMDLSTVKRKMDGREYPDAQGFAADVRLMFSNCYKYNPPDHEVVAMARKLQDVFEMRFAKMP
# [5] = biological target: KLHDC2^SBD / E344G BRD3^BD2 (Homo sapiens, UniProt Q15059+Q9Y2U9, E344G); test: ITC, ternary complex KLHDC2^SBD with PROTAC-E344G BRD3^BD2
# Sequence of KLHDC2^SBD / E344G BRD3^BD2 (Q9Y2U9 15-361): as the sequence (Q9Y2U9 15-361 H346A/R347A) above, with A332H, A333R counted along it
# Sequence of KLHDC2^SBD / E344G BRD3^BD2 (Q15059 306-416 E344G): as the sequence (Q15059 306-416, stated change not applied) above, with E39G counted along it
# [6] = biological target: KLHDC2^SBD / G386E BRD4^BD2 (Homo sapiens, UniProt O60885+Q9Y2U9, G386E); test: ITC, ternary complex KLHDC2^SBD with PROTAC-G386E BRD4^BD2
# Sequence of KLHDC2^SBD / G386E BRD4^BD2 (Q9Y2U9 15-361, other chains not shown): as the sequence (Q9Y2U9 15-361 H346A/R347A) above, with A332H, A333R counted along it
# KLHDC2^SBD / BRD3^BD2 = KLHDC2^SBD / BRD3^BD2 (Homo sapiens, UniProt Q15059+Q9Y2U9); test: ITC, ternary complex KLHDC2^SBD with PROTAC-BRD3^BD2
# Sequence of KLHDC2^SBD / BRD3^BD2 (Q9Y2U9 15-361): as the sequence (Q9Y2U9 15-361 H346A/R347A) above, with A332H, A333R counted along it
# Sequence of KLHDC2^SBD / BRD3^BD2 (Q15059 306-416): as the sequence (Q15059 306-416, stated change not applied) above
# neddylated CRL2^KLHDC2 = neddylated CRL2^KLHDC2 (Homo sapiens, UniProt Q9Y2U9, G405K/S406K); test: biochemical
# BRD2^BD2 = BRD2^BD2 (Homo sapiens, UniProt P25440); test: ITC, binary binding to BRD2^BD2
# Sequence of BRD2^BD2 (P25440 344-455): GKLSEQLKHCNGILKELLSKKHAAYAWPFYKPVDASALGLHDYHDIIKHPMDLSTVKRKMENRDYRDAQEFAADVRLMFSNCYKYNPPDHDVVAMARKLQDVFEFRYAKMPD
# [7] = system: CUL2^KLHDC2, CUL2^KLHDC3, CUL2^KLHDC10, CUL5^KLHDC1; test: SJ46421-dependent BRD^BD2 ubiquitylation by KLHDC-family CRLs (E3 selectivity); settings: Figs 5a, S5a
# KLHDC2^SBD / BRD2^BD2 = KLHDC2^SBD / BRD2^BD2 (Homo sapiens, UniProt P25440+Q9Y2U9); test: ITC, ternary complex KLHDC2^SBD with PROTAC-BRD2^BD2
# Sequence of KLHDC2^SBD / BRD2^BD2 (Q9Y2U9 15-361): as the sequence (Q9Y2U9 15-361 H346A/R347A) above, with A332H, A333R counted along it
# Sequence of KLHDC2^SBD / BRD2^BD2 (P25440 344-455): as the sequence (P25440 344-455) above
# BRD3^BD2 = BRD3^BD2 (Homo sapiens, UniProt Q15059); test: ITC, binary binding to BRD3^BD2
# Sequence of BRD3^BD2 (Q15059 306-416): as the sequence (Q15059 306-416, stated change not applied) above
# [8] = biological target: KLHDC2^SBD / G382E BRD2^BD2 (Homo sapiens, UniProt P25440+Q9Y2U9, G382E); test: ITC, ternary complex KLHDC2^SBD with PROTAC-G382E BRD2^BD2
# Sequence of KLHDC2^SBD / G382E BRD2^BD2 (Q9Y2U9 15-361): as the sequence (Q9Y2U9 15-361 H346A/R347A) above, with A332H, A333R counted along it
# Sequence of KLHDC2^SBD / G382E BRD2^BD2 (P25440 344-455 G382E): as the sequence (P25440 344-455) above, with G39E counted along it
# [9] = biological target: neddylated CRL2^KLHDC2 (tetrameric KLHDC2-EloB/C) (Homo sapiens, UniProt Q15059+Q9Y2U9); test: Ubiquitylation assay monitoring disruption of the KLHDC2-EloBC tetrameric assembly
# [10] = biological target: K291A KLHDC2^SBD / BRD3^BD2 (Homo sapiens, UniProt Q15059+Q9Y2U9, K291A); test: ITC, ternary complex K291A KLHDC2^SBD with PROTAC-BRD3^BD2
# Sequence of K291A KLHDC2^SBD / BRD3^BD2 (Q9Y2U9 15-361 K291A): as the sequence (Q9Y2U9 15-361 H346A/R347A) above, with K277A, A332H, A333R counted along it
# Sequence of K291A KLHDC2^SBD / BRD3^BD2 (Q15059 306-416): as the sequence (Q15059 306-416, stated change not applied) above
# [11] = ITC source data Fig4f, N=1, syringe H346A/R347A KLHDC2, cell SJ46421-BRD3BD2
# [12] = ITC, syringe H346A/R347A KLHDC2, cell compound-BRD3BD2, N=1
# [13] = cell: SJ46421-BRD3^BD2, syringe: H346A/R347A KLHDC2^SBD, n=1
# [14] = cell: SJ46421-E344G BRD3^BD2, syringe: KLHDC2^SBD
# [15] = cell: SJ46421-G386E BRD4^BD2, syringe: KLHDC2^SBD
# [16] = cell: PROTAC-BRD3^BD2, syringe: KLHDC2^SBD
# [17] = cell: SJ46421, syringe: BRD2^BD2
# [18] = ITC, syringe KLHDC2, cell BRD2BD2-compound, Rep1, Rep2
# [19] = cell: PROTAC-BRD2^BD2, syringe: KLHDC2^SBD
# [20] = cell: SJ46421, syringe: BRD3^BD2
# [21] = cell: SJ46421-G382E BRD2^BD2, syringe: KLHDC2^SBD
# [22] = ITC source data Fig4f, N=1, syringe K291A KLHDC2, cell SJ46421-BRD3BD2
# [23] = ITC, syringe K291A KLHDC2, cell compound-BRD3BD2, N=1
# [24] = cell: SJ46421-BRD3^BD2, syringe: K291A KLHDC2^SBD, n=1
structure (smiles),measurement,setting,value
COC(=O)CNC(=O)Cc1csc(-c2ccc3cccc(OCCN4CCN(C(=O)C[C@@H]5N=C(c6ccc(Cl)cc6)c6c(sc(C)c6C)-n6c(C)nnc65)CC4)c3c2)n1 [SJ46420],change of protein levels by TMT proteomics,[1]; KO/rescue U2OS cells,"BRD3 was most substantially downregulated, with lesser reductions in the levels of BRD4 and BRD2"
same,change of protein levels by TMT proteomics,[1]; U2OS KLHDC2 KO cells,not observed
same,IC50,[2],~0.3 µM
Cc1sc2c(c1C)C(c1ccc(Cl)cc1)=N[C@@H](CC(=O)N1CCN(CCOc3cccc4ccc(-c5nc(CC(=O)NCC(=O)O)cs5)cc34)CC1)c1nnc(C)n1-2 [SJ46421],cellular permeability,[3],poor cellular permeability; also recorded: poor permeability properties
same,Kd,[4],0.0509 µM
same,cooperativity α,"[4]; H346A/R347A KLHDC2^SBD, estimated from the binding affinity of SJ46421 to WT KLHDC2",6.0
same,"(-)TDS, Rep1",[4]; [11],-7.83
same,"DG, Rep1",[4]; [11],-10.2
same,"DH, Rep1",[4]; [11],-2.36
same,(-)TDS,[4]; [12],-7.83
same,DG,[4]; [12],-10.2
same,DH,[4]; [12],-2.36
same,ITC -TΔS (ternary),[4]; [13],-7.83 kcal/mol-1
same,ITC N (ternary),[4]; [13],0.9
same,ITC ΔG (ternary),[4]; [13],-10.2 kcal/mol-1
same,ITC ΔH (ternary),[4]; [13],-2.36 kcal/mol-1
same,cooperativity α,"[5]; E344G BRD3^BD2, KLHDC2^SBD",1.7
same,Kd,"[5]; Kd, Rep1/Rep2, ITC source data Fig4f, syringe KLHDC2, cell SJ46421-E344GBRD3BD2",0.187 µM and 0.175 µM
same,ITC -TΔS (ternary),[5]; [14],-2.23 +/- 0.12 kcal/mol-1
same,ITC N (ternary),[5]; [14],1.0
same,ITC ΔG (ternary),[5]; [14],-9.42 +/- 0.08 kcal/mol-1
same,ITC ΔH (ternary),[5]; [14],-7.19 +/- 0.05 kcal/mol-1
same,cooperativity α,"[6]; G386E BRD4^BD2, KLHDC2^SBD",13 and 12.7
same,Kd,"[6]; Kd, Rep1/Rep2, ITC source data Fig4f, syringe KLHDC2, cell SJ46421-G386EBRD4BD2",0.0234 µM and 0.0259 µM
same,ITC -TΔS (ternary),[6]; [15],-1.30 +/- 0.11 kcal/mol-1
same,ITC N (ternary),[6]; [15],0.9
same,ITC ΔG (ternary),[6]; [15],-10.6 +/- 0.04 kcal/mol-1
same,ITC ΔH (ternary),[6]; [15],-9.05 +/- 0.37 kcal/mol-1
same,ΔG (binary + ternary),KLHDC2^SBD / BRD3^BD2; BRD3^BD2,-19.9 kcal/mol
same,cooperativity α,"KLHDC2^SBD / BRD3^BD2; BRD3^BD2, KLHDC2^SBD",16
same,(-)TDS,"KLHDC2^SBD / BRD3^BD2; ITC, syringe KLHDC2, cell BRD3BD2-compound (printed BRD2BD3 for SJ46421), Rep1, Rep2",1.05
same,ITC N (ternary),KLHDC2^SBD / BRD3^BD2; [16],0.9
same,ITC ΔG (ternary),KLHDC2^SBD / BRD3^BD2; [16],-10.8 +/- 0.01 kcal/mol-1
same,ITC ΔH (ternary),KLHDC2^SBD / BRD3^BD2; [16],-6.65 +/- 0.79 kcal/mol-1
same,IC50,neddylated CRL2^KLHDC2,2.6 µM
same,Kd,"BRD2^BD2; ITC Kd, cell: SJ46421, syringe: BRD2^BD2",2.14 ± 0.306 µM
same,(-)TDS,"BRD2^BD2; ITC, syringe BRD2BD2, cell compound, Rep1, Rep2",2.71 and 2.54
same,Kd,"BRD2^BD2; Kd, Rep1/Rep2, ITC source data Fig4a, syringe BRD2BD2, cell SJ46421",2.29 µM and 1.89 µM
same,ITC -TΔS,BRD2^BD2; [17],2.63 +/- 0.12 kcal/mol-1
same,ITC N,BRD2^BD2; [17],0.9
same,ITC ΔH,BRD2^BD2; [17],-10.5 +/- 0.45 kcal/mol-1
same,"SJ46421-dependent ubiquitylation by KLHDC3, KLHDC10, and KLHDC1",[7],poor
same,ΔG (binary + ternary),KLHDC2^SBD / BRD2^BD2; BRD2^BD2,-18.4 kcal/mol
same,(-)TDS,KLHDC2^SBD / BRD2^BD2; [18],1.18 and 0.97
same,DH,KLHDC2^SBD / BRD2^BD2; [18],-10.5
same,ITC -TΔS (ternary),KLHDC2^SBD / BRD2^BD2; [19],1.08 +/- 0.19 kcal/mol-1
same,ITC N (ternary),KLHDC2^SBD / BRD2^BD2; [19],0.9
same,ITC ΔG (ternary),KLHDC2^SBD / BRD2^BD2; [19],-9.33 +/- 0.05 kcal/mol-1
same,ITC ΔH (ternary),KLHDC2^SBD / BRD2^BD2; [19],-10.4 +/- 0.10 kcal/mol-1
same,Kd,"BRD3^BD2; ITC Kd, cell: SJ46421, syringe: BRD3^BD2",1 ± 0.194 µM
same,(-)TDS,"BRD3^BD2; ITC, syringe BRD3BD2, cell compound, Rep1, Rep2",5.34 and 5
same,Kd,"BRD3^BD2; Kd, Rep1/Rep2, ITC source data Fig4a, syringe BRD3BD2, cell SJ46421",1.07 µM and 0.908 µM
same,ITC -TΔS,BRD3^BD2; [20],5.11 +/- 0.24 kcal/mol-1
same,ITC N,BRD3^BD2; [20],0.9
same,ITC ΔH,BRD3^BD2; [20],-13.5 +/- 0.53 kcal/mol-1
same,cooperativity α,"[8]; G382E BRD2^BD2, KLHDC2^SBD",3.2
same,(-)TDS,"[8]; ITC, syringe KLHDC2, cell compound-G382EBRD2BD2, Rep1, Rep2",0.62 and 0.68
same,Kd,"[8]; Kd, Rep1/Rep2, ITC source data Fig4f, syringe KLHDC2, cell SJ46421-G382EBRD2BD2",0.103 µM and 0.0881 µM
same,ITC -TΔS (ternary),[8]; [21],0.65 +/- 0.07 kcal/mol-1
same,ITC N (ternary),[8]; [21],0.9
same,ITC ΔG (ternary),[8]; [21],-9.80 +/- 0.02 kcal/mol-1
same,ITC ΔH (ternary),[8]; [21],-10.5 +/- 0.11 kcal/mol-1
same,"KLHDC2~UB level, Rep1/Rep2","[9]; Monomer, + BRD3-SJ46421, pre-incubation 0",0.5851 and 0.3857
same,"KLHDC2~UB level, Rep1/Rep2","[9]; Tetramer, + BRD3-SJ46421, pre-incubation 0",67.2962 and 61.2938
same,"KLHDC2~UB level, Rep1/Rep2","[9]; Tetramer, + BRD3-SJ46421, pre-incubation 2",32.2274 and 23.9384
same,"KLHDC2~UB level, Rep1/Rep2","[9]; Tetramer, + BRD3-SJ46421, pre-incubation 5",1.6168 and 2.133
same,Kd,[10],0.0256 µM
same,"(-)TDS, Rep1",[10]; [22],-5.73
same,"DG, Rep1",[10]; [22],-10.6
same,"DH, Rep1",[10]; [22],-4.87
same,(-)TDS,[10]; [23],-5.73
same,DG,[10]; [23],-10.6
same,DH,[10]; [23],-4.87
same,cooperativity α,"[10]; K291A KLHDC2^SBD, estimated from the binding affinity of SJ46421 to WT KLHDC2",11.9
same,ITC -TΔS (ternary),[10]; [24],-5.73 kcal/mol-1
same,ITC N (ternary),[10]; [24],0.9
same,ITC ΔG (ternary),[10]; [24],-10.6 kcal/mol-1
same,ITC ΔH (ternary),[10]; [24],-4.87 kcal/mol-1

# — paper PMC11470957, “Principles of paralog-specific targeted protein degradation engaging the C-degron E3 KLHDC2” (Nature Communications, 2024)
